US12576063B2, “Implantable drug delivery devices for localized drug delivery” (priority 2020, dated 2026)

How the values were obtained:
[1] = Plasma drug quantification after implantation of two devices into canine prostate; set-up: species or system canines; details: male, dog, in vivo
Protocol: Clinical observations and body weight were recorded.
Placement of devices was confirmed by transrectal ultrasound during implantation and 1, 7, 14, and 28 days post-implantation.
Note that the plasma levels as shown in FIGS. 6A and 6B are in micrograms for the oral dose while the scale is in ng/mL for the device plasma levels.

in vivo = details: male, dog
Protocol: (§1) In this study, three canines, at least fifteen months old, were employed. […] An 18-gauge brachytherapy needle (OD 1.27 mm) was used for device implantation. Clinical observations and body weight were recorded.
(§2) 55 days post-implantation, study animals were euthanized and underwent gross necropsy. […] Prostate glands were trimmed and cut in three section perpendicular to the urethra: a cranial (rostral) section, a 3-5 mm transverse section, and a caudal section. […] The transverse piece in its entirety was sent for histopathological evaluation.

[2] = Solid tissue and prostate gland drug quantification 55 days post-implantation; details: for liver level: average; for whole prostate gland level: centre transverse section not included; for level in 5 mm punch biopsies surrounding device implants: prostate tissue within ~5 mm of device
Protocol: as §1, §2

prostate cancer cells = details: cited from earlier work

Row | Compound | time to plasma steady state [1] [days] | concentration at 55 day (in vivo; level in 5 mm punch biopsies surrounding device implants) [ng/g] | concentration at 55 day (in vivo; liver level) [ng/g] | concentration at 55 day (in vivo; whole prostate gland level) [ng/g] | liver level [2] [ng/g] | whole prostate gland level [2] [ng/g] | level in 5 mm punch biopsies surrounding device implants [2] [ng/g] | level in prostate tissue within ~5 mm of the device (molar) [2] [nM] | whole prostate gland level (molar) [2] [nM] | IC50 (prostate cancer cells) [nM]
1 | CC(O)(CS(=O)(=O)c1ccc(F)cc1)C(=O)Nc1ccc(C#N)c(C(F)(F)F)c1 (stereo not shown) [bicalutamide] | ~4 | 1430 ± 501 | 47 ± 16 | 172 ± 21 |  |  |  |  |  | 
2 | C[C@@](O)(CS(=O)(=O)c1ccc(F)cc1)C(=O)Nc1ccc(C#N)c(C(F)(F)F)c1 [S-bicalutamide] |  |  |  |  | 19 ± 7 | 87 ± 11 | 727 ± 259 |  |  | 
3 | C[C@](O)(CS(=O)(=O)c1ccc(F)cc1)C(=O)Nc1ccc(C#N)c(C(F)(F)F)c1 [R-bicalutamide] |  |  |  |  | 28 ± 9 | 86 ± 10 | 698 ± 242 | 1623 ± 562 | 196.6 ± 23.5 | ~1000
